The text below walks through data of ChEMBL document CHEMBL1145670, “Additional New Maytansinoids from Trewia nudiflora: 10-Epitrewiasine and Nortrewiasine” (1983).

≈ marks a conversion by molar mass, not a printed value.

Type in all cases: functional
For one experiment, the system named is KB. Put plainly: Cytotoxicity against human KB cells. The conditions noted are these: for EC50: Homo sapiens, KB, read-out: ED50 (the source's name).
The subject of experiment [1] is P388. Put plainly: In vivo antileukemic activity against mouse P388 cells at 4 mg/kg.
Experiment [2] deals with P388. Put plainly: In vivo antileukemic activity against mouse P388 cells at 32 mg/kg.
Experiment [3] deals with P388. Put plainly: In vivo antileukemic activity against mouse P388 cells at 8 mg/kg.
Experiment [4] concerns P388. Description: In vivo antileukemic activity against mouse P388 cells at 16 mg/kg.

As for `COc1cc2cc(c1Cl)N1CC(=O)C(C)(O)C(=O)N(C)C(C)C(=O)O[C@@H](CC1=O)[C@]1(C)O[C@H]1[C@H](C)[C@@H]1C[C@@](O)(NC(=O)O1)[C@H](OC)/C=C/C=C(\C)C2OC` (stereo partly drawn), the EC50 in the experiment with KB is < 0.01 mg/L. Besides, the T/C (commonly the result in the treated group divided by that in the control group, in per cent) in the experiment with P388 [1] came to 153%.

Consider `COc1cc2cc(c1Cl)N(C)C(=O)C[C@H](OC(=O)[C@H](C)N(C)C(=O)C(C)C)[C@]1(C)O[C@H]1[C@H](C)[C@@H]1C[C@@](O)(NC(=O)O1)[C@@H](OC)/C=C/C=C(\C)C2OC` (stereo partly drawn), for which the EC50 in the experiment with KB is < 0.001 mg/L. This compound also had a T/C in the experiment on P388 [2] of 131%.

Turning to `COc1cc2cc(c1Cl)N(C)C(=O)C[C@H](OC(=O)[C@H](C)N(C)C(=O)C(C)C)[C@]1(C)O[C@H]1[C@H](C)[C@@H]1C[C@@](O)(NC(=O)O1)[C@H](OC)/C=C/C=C(\C)C2O` (stereo partly drawn) [COLUBRINOL], the EC50 in the experiment with KB was < 0.001 mg/L. The T/C with P388 [2] is on record as 159%.

Turning to `C=C(C)C(=O)N(C)[C@@H](C)C(=O)O[C@H]1CC(=O)N(C)c2cc(cc(OC)c2Cl)C(OC)/C(C)=C/C=C/[C@@H](OC)[C@@]2(O)C[C@H](OC(=O)N2)[C@@H](C)[C@@H]2O[C@@]12C` (stereo partly drawn) [DEHYDROTREWIASINE], the EC50 in the experiment on KB was < 0.01 mg/L. This compound came in with a T/C with P388 [3] of 172%.

`COc1cc2cc(c1Cl)N(C)C(=O)C[C@H](OC(=O)[C@H](C)NC(=O)C(C)C)[C@]1(C)O[C@H]1[C@H](C)[C@@H]1C[C@@](O)(NC(=O)O1)[C@H](OC)/C=C/C=C(\C)C2OC` (stereo partly drawn) [DEMETHYLTREWIASINE]: the EC50 in the experiment with KB was 0.049 mg/L (≈ 0.0666 µM). The T/C in the experiment on P388 [3] came out at 159%.

`COc1cc2cc(c1Cl)NC(=O)C[C@H](OC(=O)[C@H](C)N(C)C(=O)C(C)C)[C@]1(C)O[C@H]1[C@H](C)[C@@H]1C[C@@](O)(NC(=O)O1)[C@H](OC)/C=C/C=C(\C)C2OC` (stereo partly drawn) [NORTREWIASINE]: the ED50 in the experiment with KB was <1 ×10⁻⁴ ug/ml. The same compound registered a T/C with P388 [4] of 155%.

The compound `COc1cc2cc(c1Cl)N1CCC(C)(O)C(=O)NC(C)C(=O)O[C@@H](CC1=O)[C@]1(C)O[C@H]1[C@H](C)[C@@H]1C[C@@](O)(NC(=O)O1)[C@H](OC)/C=C/C=C(\C)C2OC` (stereo partly drawn) [TREFLORINE] had an ED50 with KB of 2.7 ×10⁻⁴ ug/ml. The compound further registered a T/C with P388 [4] of 157%.

Turning to `COc1cc2cc(c1Cl)N1CC(O)C(C)(O)C(=O)NC(C)C(=O)O[C@@H](CC1=O)[C@]1(C)O[C@H]1[C@H](C)[C@@H]1C[C@@](O)(NC(=O)O1)[C@H](OC)/C=C/C=C(\C)C2OC` (stereo partly drawn) [TRENUDINE], the ED50 in the experiment with KB worked out at 6.4 ×10⁻⁴ ug/ml. For the same compound, the T/C in the experiment on P388 [3] amounted to 146%.

Consider `COc1cc2cc(c1Cl)N(C)C(=O)C[C@H](OC(=O)[C@H](C)N(C)C(=O)C(C)C)[C@]1(C)O[C@H]1[C@H](C)[C@@H]1C[C@@](O)(NC(=O)O1)[C@H](OC)/C=C/C=C(\C)C2OC` (stereo partly drawn) [TREWIASINE], for which the ED50 in the experiment with KB stood at 2 ×10⁻⁴ ug/ml. In addition, the T/C with P388 [4] worked out at 154%.
